We go through 23 compounds from US20250034197A1, “NUCLEOSIDE-DIPHOSPHATE-HEPTOSE COMPOUNDS FOR TREATING CONDITIONS ASSOCIATED WITH ALPK1 ACTIVITY” (PYROTECH (BEIJING) BIOTECHNOLOGY CO., LTD., priority 2021, published 2025).

Data set [1] deals with T1, ALPK1 (Homo sapiens, UniProt Q96QP1).
T1 construct: endogenous in cells; host or cells: 293T cells
Description: NF-κB luciferase reporter assay in 293T cells (cellular assay). The data set is classed as cell-based. On the procedure:
The compounds disclosed herein activate NF-κB through ALPK1-TIFA axis as determined by the NF-κB luciferase reporter and TIFA phosphorylation. For NF-κB luciferase assay, the plasmids (pNL2.2-BII-5RE-Luc), and control vector (pRL-TK) were transfected into 293T cells with the Jetprime reagents (Polyplus). NF-κB luciferase activity was determined using the dual luciferase assay kit (Promega) according to the manufacturer's instructions. TIFA phosphorylation upon the treatment with the compounds disclosed herein described in Table 1, were assayed with immunoblotting. Briefly, for the immunoblotting assay, the 293T cells were seeded in 12-well-plates and cultured for 16 h, and treated with indicated compounds for another 2 hours. Subsequently, the cells were collected and sampled as the regular western-blotting method, immunoblotted by the TIFA phosphorylation specific antibody (ab214815, Abcam).
The EC50 of the compounds disclosed herein were determined by the NF-κB luciferase reporter assay using 293T cells described supra. Compounds with indicated concentrations were added to the culture medium of 293T and the NF-κB luciferase activity was determined using the dual luciferase assay kit (Promega) according to the manufacturer's instructions. […] These chemical entities induce strong activation of the immune regulator NF-κB.
Background: In a reporter assay the amount or activity of a reporter protein is the signal.

In data set [2] the target is T1, ALPK1. Description: Enzymatic assay of ALPK1 activation. Type of data set: biochemical.
The nature of data set [3]: PK / tissue distribution in Sprague-Dawley rats. The data set is classed as in vivo. The conditions noted are these: female, rat; for Cmax: PO, 5 mg/kg; for clearance: IV 1 mg/kg, read-out: CL post IV Dosing @1 mg/kg; for half-life: PO 5 mg/kg, read-out: T1/2 post PO Dosing @5 mg/kg (converted). On the procedure: Tissue distribution study of the compounds disclosed herein were conducted in SD rats and mice to assess their liver-targeting properties. The compounds disclosed herein were orally administered to SD rats and mice, and the concentration of the compound and its metabolites were tested in plasma and liver at different time points.
The pharmacokinetics of the compounds disclosed herein were evaluated in female Sprague-Dawley rats after administration via oral gavage and intravenous bolus (IV) injection. The test compound was dissolved in 0.5% methylcellulose for oral gavage and in 30% HP-β-CD for IV injection. The animals used for oral administration were fasted overnight prior to dosing and fed normal daily feed at 4 hours post-dose, but the animals used for IV dosing had free access to food during the study. Plasma samples were collected at pre-dose, 0.033 (IV only), 0.083, 0.25, 0.5, 1, 2, 4, 7 and 24 hours post-dose. Liver samples were collected at 1, 3 and 6 hours post-dose. The samples were analyzed by LC/MS/MS and the concentrations of test compound and its metabolites at each time point were determined. Pharmacokinetic parameters were calculated from the plasma concentrations using Pheonix WinNonlin.
Particularly, preferable compounds have a ratio for liver concentration to plasma concentration of greater than 2, more preferable compounds have a ratio for liver concentration to plasma concentration of greater than 5, and most preferable compounds have a ratio for liver concentration to plasma concentration of greater than 10. The PK properties and tissue exposure of representative compounds and control compound ADPS-Heptose in Rats are given below.

The mark [4] stands for this setting: plasma, read-out: Cmax in Plasma.

Like-named read-outs stand apart in the source and are kept apart here.

By EC50 is commonly meant the concentration at which the effect is half-maximal. Read a low EC50 as an effect from little substance. Broadly, the Cmax is the peak of the concentration-time curve.

T1 sequence (Q96QP1 whole entry): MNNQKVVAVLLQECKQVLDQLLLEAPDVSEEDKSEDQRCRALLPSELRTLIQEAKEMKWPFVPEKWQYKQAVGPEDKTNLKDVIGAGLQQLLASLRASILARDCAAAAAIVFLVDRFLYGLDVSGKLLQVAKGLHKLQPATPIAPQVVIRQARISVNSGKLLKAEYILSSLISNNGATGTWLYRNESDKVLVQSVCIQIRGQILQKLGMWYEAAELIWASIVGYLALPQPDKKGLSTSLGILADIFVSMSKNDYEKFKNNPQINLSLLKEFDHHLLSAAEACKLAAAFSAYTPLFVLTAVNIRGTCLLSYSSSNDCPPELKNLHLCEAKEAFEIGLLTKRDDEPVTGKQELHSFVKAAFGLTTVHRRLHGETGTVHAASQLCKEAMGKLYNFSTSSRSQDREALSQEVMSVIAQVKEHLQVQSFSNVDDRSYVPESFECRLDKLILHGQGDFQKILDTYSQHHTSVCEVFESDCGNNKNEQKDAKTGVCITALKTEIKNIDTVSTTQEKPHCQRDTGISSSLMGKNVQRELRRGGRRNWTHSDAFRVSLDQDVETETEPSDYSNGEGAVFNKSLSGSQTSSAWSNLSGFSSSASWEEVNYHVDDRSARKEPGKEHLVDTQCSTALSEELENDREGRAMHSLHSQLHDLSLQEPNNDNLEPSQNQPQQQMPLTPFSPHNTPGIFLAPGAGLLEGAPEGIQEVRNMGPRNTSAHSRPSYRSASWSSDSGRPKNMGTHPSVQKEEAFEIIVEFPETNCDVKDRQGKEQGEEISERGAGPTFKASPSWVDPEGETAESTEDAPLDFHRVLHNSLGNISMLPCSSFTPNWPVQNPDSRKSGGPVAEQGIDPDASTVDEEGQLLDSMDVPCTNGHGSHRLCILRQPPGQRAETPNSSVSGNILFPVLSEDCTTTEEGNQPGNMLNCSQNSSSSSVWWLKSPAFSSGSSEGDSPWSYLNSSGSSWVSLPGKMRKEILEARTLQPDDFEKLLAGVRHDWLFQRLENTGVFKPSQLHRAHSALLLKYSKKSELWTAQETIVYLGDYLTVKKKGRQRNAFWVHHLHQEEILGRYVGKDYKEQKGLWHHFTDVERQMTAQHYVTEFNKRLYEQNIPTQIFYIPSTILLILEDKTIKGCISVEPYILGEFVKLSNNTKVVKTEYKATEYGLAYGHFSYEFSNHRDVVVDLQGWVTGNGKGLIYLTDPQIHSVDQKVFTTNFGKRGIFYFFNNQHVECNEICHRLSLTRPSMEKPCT

As to `C=C[C@@]1(O)[C@H](O)[C@@H](COP(=O)(S)OP(=O)(O)OC2OC([C@@H](O)CO)C(O)C(O)C2O)O[C@H]1n1cnc2c(N)ncnc21` (some centres unmarked) [Example 31D], the half-maximal effective concentration (EC50) at ALPK1 [1] came to 16 nM; at ALPK1 [2], 24 nM.

Turning to `C=C[C@@]1(F)[C@H](O)[C@@H](COP(=O)(S)OP(=O)(O)OC2OC([C@H](COC(C)=O)OC(C)=O)C(OC(C)=O)C(OC(C)=O)C2OC(C)=O)O[C@H]1n1cnc2c(N)ncnc21` (some centres unmarked) [Example 41C], the Cmax in data set [3] (liver, read-out: Cmax in Liver) was 18.7 ng/g; in data set [3] (setting [4]), below 1 ng/mL. Moreover, the clearance in data set [3] (plasma) came out at 9.76 mL/min/kg. In addition, the half-life in data set [3] (plasma) was 51 min. Also, the concentration giving a half-maximal response (EC50) at ALPK1 [1] was 8.31 nM.

Consider `C#C[C@@]1(O)[C@H](O)[C@@H](COP(=O)(S)OP(=O)(O)OC2OC([C@@H](O)CO)C(O)C(O)C2O)O[C@H]1n1cnc2c(N)ncnc21` (some centres unmarked) [Example 25D], for which the half-maximal effective concentration (EC50) on ALPK1 [1] amounted to 8.41 nM; on ALPK1 [2] it was 17 nM.

Turning to `C=C[C@@]1(O)[C@H](O)[C@@H](COP(=O)(S)OP(=O)(O)OC2OC([C@@H](O)CO)C(O)C(O)C2O)O[C@H]1n1ccc(=O)[nH]c1=O` (some centres unmarked) [Example 43D], the EC50 worked out at 18.3 nM on ALPK1 [1] and 48 nM on ALPK1 [2].

As to `C=C[C@@]1(O)[C@H](O)[C@@H](CO[P@@](=O)(S)OP(=O)(O)OC2OC([C@@H](O)CO)C(O)C(O)C2O)O[C@H]1n1cnc2c(N)ncnc21` (single isomer, unassigned) [Example 31R], the concentration for a half-maximal effect (EC50) is 13.6 nM at ALPK1 [1] and 12 nM on ALPK1 [2].

As to `C=C[C@@]1(O)[C@H](O)[C@@H](COP(=O)(S)OP(=O)(O)OC2OC([C@H](COC(C)=O)OC(C)=O)C(OC(C)=O)C(OC(C)=O)C2OC(C)=O)O[C@H]1n1ccc(=O)[nH]c1=O` (some centres unmarked) [Example 43C], the Cmax in data set [3] (liver, read-out: Cmax in Liver) was 22.4 ng/g; in data set [3] (setting [4]), below 1 ng/mL. In addition, the clearance in data set [3] (plasma) worked out at 8.25 mL/min/kg. Also, the half-life in data set [3] (plasma) is 140 min. At ALPK1 [1], this compound yielded an EC50 of 20.7 nM.

Take `C=C[C@@]1(O)[C@H](O)[C@@H](COP(=O)(S)OP(=O)(O)OC2OC([C@H](COC(C)=O)OC(C)=O)C(OC(C)=O)C(OC(C)=O)C2OC(C)=O)O[C@H]1n1cnc2c(N)ncnc21` (some centres unmarked) [Example 31C]: the Cmax in data set [3] (liver, read-out: Cmax in Liver) amounted to 30.5 ng/g. Moreover, in data set [3] (setting [4]), the Cmax is below 1 ng/mL. In data set [3] (plasma), the clearance worked out at 14.6 mL/min/kg and the half-life was 104 min. The concentration for a half-maximal effect (EC50) on ALPK1 [1] was determined as 16.9 nM.

`C=C[C@@]1(F)[C@H](O)[C@@H](COP(=O)(S)OP(=O)(O)OC2OC([C@@H](O)CO)C(O)C(O)C2O)O[C@H]1n1ccc(=O)[nH]c1=O` (some centres unmarked) [Example 42D]: the EC50 came to 14 nM at ALPK1 [1] and 11 nM at ALPK1 [2].

For the compound `CC(=O)OC[C@H](OC(C)=O)C1OC(OP(=O)(O)OP(=O)(S)OC[C@H]2O[C@@H](n3cnc4c(N)ncnc43)[C@H](N(C)C)[C@@H]2O)C(OC(C)=O)C(OC(C)=O)C1OC(C)=O` (some centres unmarked) [Example 35C], the Cmax amounted to 1330 ng/g in data set [3] (liver, read-out: Cmax in Liver) and 75.5 ng/mL in data set [3] (setting [4]). In data set [3] (plasma), the clearance was found to be 7.67 mL/min/kg. Also, the half-life in data set [3] (plasma) was 27 min. The compound also showed an EC50 on ALPK1 [1] of 18.9 nM.

For the compound `C#C[C@@]1(F)[C@H](O)[C@@H](COP(=O)(S)OP(=O)(O)OC2OC([C@@H](O)CO)C(O)C(O)C2O)O[C@H]1n1ccc(=O)[nH]c1=O` (some centres unmarked) [Example 22D], the 50% effective concentration (EC50) at ALPK1 [1] turned out to be 5.66 nM; on ALPK1 [2], 64 nM.

Regarding `C=C[C@@]1(O)[C@H](O)[C@@H](COP(=O)(S)OP(=O)(O)OC2OC([C@H](COC(C)=O)OC(C)=O)C(OC(C)=O)C(OC(C)=O)C2OC(C)=O)O[C@H]1c1cnc2c(N)ncnn12` (some centres unmarked) [Example 127C], the highest concentration (Cmax) in data set [3] (liver, read-out: Cmax in Liver) is 48.5 ng/g. Further, in data set [3] (setting [4]), the Cmax was 0.4 ng/mL. Moreover, in data set [3] (plasma), the clearance was 17.6 mL/min/kg and the half-life was 38.4 min. Also, at ALPK1 [1], the response was half-maximal at 2.94 nM (EC50).

On to `C=C[C@@]1(F)[C@H](O)[C@@H](COP(=O)(S)OP(=O)(O)OC2OC([C@@H](O)CO)C(O)C(O)C2O)O[C@H]1n1cnc2c(N)ncnc21` (single isomer, unassigned) [Example 41D], for which the EC50 was 5.71 nM on ALPK1 [1] and 4.1 nM on ALPK1 [2].

For the compound `C=C[C@@]1(F)[C@H](O)[C@@H](COP(=O)(S)OP(=O)(O)OC2OC([C@H](COC(C)=O)OC(C)=O)C(OC(C)=O)C(OC(C)=O)C2OC(C)=O)O[C@H]1n1ccc(=O)[nH]c1=O` (some centres unmarked) [Example 42C], the maximum concentration (Cmax) in data set [3] (liver, read-out: Cmax in Liver) turned out to be 31.7 ng/g; in data set [3] (setting [4]), 2.4 ng/mL. Also, the clearance in data set [3] (plasma) was determined as 18.6 mL/min/kg. Also, the half-life in data set [3] (plasma) was 37.8 min. Besides, it took 7.57 nM to reach a half-maximal effect on ALPK1 [1] (EC50).

Regarding `C=C[C@@]1(O)[C@H](O)[C@@H](CO[P@](=O)(S)OP(=O)(O)OC2OC([C@@H](O)CO)C(O)C(O)C2O)O[C@H]1n1cnc2c(N)ncnc21` (single isomer, unassigned) [Example 31Q], the EC50 at ALPK1 [1] is 7.01 nM; at ALPK1 [2], 11 nM.

As for `CS[C@@H]1[C@H](O)[C@@H](COP(=O)(S)OP(=O)(O)OC2OC([C@@H](O)CO)C(O)C(O)C2O)O[C@H]1n1ccc(=O)[nH]c1=O` (some centres unmarked) [Example 262D], the EC50 at ALPK1 [1] turned out to be 101 nM.

Compound `C#C[C@@]1(N=[N+]=[N-])[C@H](O)[C@@H](COP(=O)(S)OP(=O)(O)OC2OC([C@H](COC(C)=O)OC(C)=O)C(OC(C)=O)C(OC(C)=O)C2OC(C)=O)O[C@H]1n1ccc(=O)[nH]c1=O` (some centres unmarked) [Example 110C] yielded an EC50 on ALPK1 [1] above 3000 nM.

As to `CN[C@@H]1[C@H](O)[C@@H](COP(=O)(S)OP(=O)(O)OC2OC([C@@H](O)CO)C(O)C(O)C2O)O[C@H]1n1cnc2c(N)ncnc21` (some centres unmarked) [Example 34D], it took 167 nM to reach a half-maximal effect on ALPK1 [1] (EC50).

On ALPK1 [1], `C#C[C@@]1(OC)[C@H](O)[C@@H](COP(=O)(S)OP(=O)(O)OC2OC([C@H](COC(C)=O)OC(C)=O)C(OC(C)=O)C(OC(C)=O)C2OC(C)=O)O[C@H]1n1ccc(=O)[nH]c1=O` (some centres unmarked) [Example 95C] showed an EC50 of 34.8 nM.

In turn, `CC(=O)OC[C@H](OC(C)=O)C1OC(OP(=O)(O)OP(=O)(S)OC[C@H]2O[C@@H](n3ccc(=O)[nH]c3=O)[C@H](N(C)C)[C@@H]2O)C(OC(C)=O)C(OC(C)=O)C1OC(C)=O` (some centres unmarked) [Example 40C] had an EC50 at ALPK1 [1] of 431 nM.

Consider `C#C[C@@]1(O)[C@H](O)[C@@H](COP(=O)(S)OP(=O)(O)OC2OC([C@@H](F)COC(C)=O)C(OC(C)=O)C(OC(C)=O)C2OC(C)=O)O[C@H]1n1cnc2c(N)ncnc21` (some centres unmarked) [Example 25A], for which, on ALPK1 [1], the EC50 is 244 nM.

Turning to `C#C[C@@]1(F)[C@H](O)[C@@H](COP(=O)(S)OP(=O)(O)OC2OC([C@@H](O)CO)C(O)C(O)C2O)O[C@H]1n1cnc2c(N)ncnc21` (some centres unmarked) [Example 21D], the 50% effective concentration (EC50) on ALPK1 [1] came out at 4.08 nM; on ALPK1 [2], 26 nM.

Turning to `C=C[C@@]1(O)[C@H](O)[C@@H](COP(=O)(S)OP(=O)(O)OC2OC([C@H](COC(=O)C(C)C)OC(=O)C(C)C)C(OC(C)=O)C(OC(C)=O)C2OC(C)=O)O[C@H]1n1cnc2c(N)ncnc21` (some centres unmarked) [Example 31M], it took 2.99 nM to reach a half-maximal effect on ALPK1 [1] (EC50). This counts as single-digit nanomolar.

As for `C=C[C@@]1(O)[C@H](O)[C@@H](COP(=O)(S)OP(=O)(O)OC2OC([C@@H](OC(C)=O)C(COC(C)=O)OC(C)=O)C(OC(C)=O)C(OC(C)=O)C2OC(C)=O)O[C@H]1n1cnc2c(N)ncnc21` (some centres unmarked) [Example 321C], at ALPK1 [1], the concentration for a half-maximal effect (EC50) was above 1000 nM.
